From patent US20230085307A1, “PYRIDAZINONE COMPOUND AND HERBICIDE” (NISSAN CHEMICAL CORPORATION, priority 2019, published 2023)

Assays:
late watergrass = experiment: Test Example 2: herbicidal activity, application during weed generation under submerged conditions (Table 17, symbol A); assay type: in vivo, late watergrass (Echinochloa oryzicola); settings: AAH 320 g/ha; application during weed generation, submerged conditions
Procedure, shortened: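 Alluvial soil in Wagner pots was flooded to 4 cm depth and sown with the three weeds together; pots were kept in a greenhouse at 25° C. to 30° C. At the one to two leaf stage, an emulsion formulation diluted in water to a set rate went onto the water surface; scored three weeks later.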

Japanese bulrush = experiment: Test Example 2: herbicidal activity, application during weed generation under submerged conditions (Table 17, symbol B); assay type: in vivo, Japanese bulrush (Schoenoplectus juncoides); settings: AAH 320 g/ha; application during weed generation, submerged conditions
Description: (§1) [Test Example 2] Herbicidal Activity Test by Application during Weed Generation under Submerged Conditions After alluvial soil was placed into 1/10000 are of Wagner pot, water was poured and mixed to form a submerged condition having a water depth of 4 cm. Seeds of late watergrass, Japanese bulrush, and oval-leafed pondweed were sowed in a mixed manner in the aforementioned pot, and the pot was placed in a greenhouse at 25° C. to 30° C. for growth of the plants. When late watergrass, Japanese bulrush, and oval-leafed pondweed were grown to one leaf stage to two leaf stage, the emulsion agent of the compound of the present invention prepared according to Formulation Example 2 was diluted with water so as to achieve a predetermined herbicide amount, and the diluted emulsion agent was applied to the surface of the water. Three weeks after the herbicide application, the effect of the herbicide on each plant was evaluated according to the criteria of Test Example 1.

oval-leafed pondweed = experiment: Test Example 2: herbicidal activity, application during weed generation under submerged conditions (Table 17, symbol C); assay type: in vivo, oval-leafed pondweed (Monochoria vaginalis); settings: AAH 320 g/ha; application during weed generation, submerged conditions
Description: as §1

barnyard grass [1] = experiment: Test Example 3: herbicidal effect by foliage application, Wagner pot (Table 18, symbol H); assay type: in vivo, barnyard grass (Echinochloa crus-galli); settings: amount of applied herbicide 320 g/ha
Procedure, shortened: (§2)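 Plants were sown in alluvial soil held under 0.1–0.5 cm standing water and grown 14 days in a greenhouse at 25–30 °C. An emulsifiable formulation, water-diluted to the set dose, was then sprayed onto the foliage, and effects were scored three weeks later using previously defined criteria.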

Chinese sprangletop = experiment: Test Example 3: herbicidal effect by foliage application, Wagner pot (Table 18, symbol D); assay type: in vivo, chinese sprangletop (Leptochloa chinensis); settings: amount of applied herbicide 320 g/ha
Procedure, shortened: as §2

rice flat sedge = experiment: Test Example 3: herbicidal effect by foliage application, Wagner pot (Table 18, symbol E); assay type: in vivo, rice flat sedge (Cyperus iria); settings: amount of applied herbicide 320 g/ha
Procedure, shortened: as §2

southern crabgrass [2] = experiment: Test Example 5: herbicidal effect by foliage application, plastic box (Table 20, symbol F); assay type: in vivo, southern crabgrass (Digitaria ciliaris); settings: foliage application
Procedure, shortened: (§3)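 Plants were sown into sterilized diluvial soil under about 1.5 cm cover and kept in a greenhouse at 25° C. to 30° C. Fourteen days on, foliage received an even spray of the diluted emulsion. Herbicidal or crop effect was judged three weeks afterwards.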

green foxtail [3] = experiment: Test Example 5: herbicidal effect by foliage application, plastic box (Table 20, symbol G); assay type: in vivo, green foxtail (Setaria viridis); settings: foliage application
Procedure, shortened: as §3

barnyard grass [4] = experiment: Test Example 5: herbicidal effect by foliage application, plastic box (Table 20, symbol H); assay type: in vivo, barnyard grass (Echinochloa crus-galli); settings: foliage application
Procedure, shortened: as §3

wild oat = experiment: Test Example 5: herbicidal effect by foliage application, plastic box (Table 20, symbol I); assay type: in vivo, wild oat (Avena fatua); settings: foliage application, AAH 320 g/ha, evaluated three weeks after application
Procedure, shortened: as §3

blackgrass = experiment: Test Example 5: herbicidal effect by foliage application, plastic box (Table 20, symbol J); assay type: in vivo, blackgrass (Alopecurus myosuroides); settings: foliage application, AAH 320 g/ha, evaluated three weeks after application
Procedure, shortened: as §3

Italian ryegrass = experiment: Test Example 5: herbicidal effect by foliage application, plastic box (Table 20, symbol K); assay type: in vivo, Italian ryegrass (Lolium multiflorum); settings: foliage application, AAH 320 g/ha, evaluated three weeks after application
Procedure, shortened: as §3

windgrass = experiment: Test Example 5: herbicidal effect by foliage application, plastic box (Table 20, symbol L); assay type: in vivo, windgrass (Apera spica-venti); settings: foliage application, AAH 320 g/ha, evaluated three weeks after application
Procedure, shortened: as §3

velvetleaf [5] = experiment: Test Example 5: herbicidal effect by foliage application, plastic box (Table 20, symbol M); assay type: in vivo, velvetleaf (Abutilon theophrasti); settings: foliage application
Procedure, shortened: as §3

redroot pigweed [6] = experiment: Test Example 5: herbicidal effect by foliage application, plastic box (Table 20, symbol N); assay type: in vivo, redroot pigweed (Amaranthus retroflexus); settings: foliage application
Procedure, shortened: as §3

lambsquarters [7] = experiment: Test Example 5: herbicidal effect by foliage application, plastic box (Table 20, symbol O); assay type: in vivo, lambsquarters (Chenopodium album); settings: foliage application
Procedure, shortened: as §3

chickweed = experiment: Test Example 5: herbicidal effect by foliage application, plastic box (Table 20, symbol P); assay type: in vivo, common chickweed (Stellaria media); settings: foliage application, AAH 320 g/ha, evaluated three weeks after application
Procedure, shortened: as §3

southern crabgrass [8] = experiment: Test Example 4: herbicidal effect by soil treatment (Table 19, symbol F); assay type: in vivo, southern crabgrass (Digitaria ciliaris); settings: amount of applied herbicide 320 g/ha
Procedure, shortened: (§4)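 In this soil treatment, the formulated compound reached the seeds only through the soil: seeds were buried about 1.5 cm deep in sterilized diluvial soil, then the diluted emulsion was sprayed over the surface. After three weeks at 25° C. to 30° C. in a greenhouse, effects were graded on criteria from an earlier test.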

green foxtail [9] = experiment: Test Example 4: herbicidal effect by soil treatment (Table 19, symbol G); assay type: in vivo, green foxtail (Setaria viridis); settings: amount of applied herbicide 320 g/ha
Procedure, shortened: as §4

barnyard grass [10] = experiment: Test Example 4: herbicidal effect by soil treatment (Table 19, symbol H); assay type: in vivo, barnyard grass (Echinochloa crus-galli); settings: amount of applied herbicide 320 g/ha
Procedure, shortened: as §4

velvetleaf [11] = experiment: Test Example 4: herbicidal effect by soil treatment (Table 19, symbol M); assay type: in vivo, velvetleaf (Abutilon theophrasti); settings: amount of applied herbicide 320 g/ha
Procedure, shortened: as §4

redroot pigweed [12] = experiment: Test Example 4: herbicidal effect by soil treatment (Table 19, symbol N); assay type: in vivo, redroot pigweed (Amaranthus retroflexus); settings: amount of applied herbicide 320 g/ha
Procedure, shortened: as §4

lambsquarters [13] = experiment: Test Example 4: herbicidal effect by soil treatment (Table 19, symbol O); assay type: in vivo, lambsquarters (Chenopodium album); settings: amount of applied herbicide 320 g/ha
Procedure, shortened: as §4

[14] = AAH 320 g/ha, evaluated three weeks after application
[15] = 320 g/ha, three weeks after application

## COCCOc1cccc(-c2sc3ccc(F)cc3c2-c2c(O)c(C)nn(C)c2=O)c1 [2-271]
Late watergrass
  herbicidal effect rating, A: late watergrass: 3 (Herbicidal rate of 40% or more and less than 70%)
Japanese bulrush
  herbicidal effect rating, B: Japanese bulrush: 0 (Herbicidal rate of 5% or less (almost no effect))
oval-leafed pondweed
  herbicidal effect rating, C: oval-leafed pondweed: 0 (Herbicidal rate of 5% or less (almost no effect))
Barnyard grass [1]
  herbicidal effect on H: barnyard grass: 3 (Herbicidal rate of 40% or more and less than 70%)
Chinese sprangletop
  herbicidal effect on D: Chinese sprangletop: 0 (Herbicidal rate of 5% or less (almost no effect))
Rice flat sedge
  herbicidal effect on E: rice flat sedge: 3 (Herbicidal rate of 40% or more and less than 70%)
Southern crabgrass [2]; [14]
  F: southern crabgrass, herbicidal effect (criteria 0-5): 0 (Herbicidal rate of 5% or less (almost no effect))
Green foxtail [3]; [14]
  G: green foxtail, herbicidal effect (criteria 0-5): 0 (Herbicidal rate of 5% or less (almost no effect))
Barnyard grass [4]; [14]
  H: barnyard grass, herbicidal effect (criteria 0-5): 0 (Herbicidal rate of 5% or less (almost no effect))
Wild oat
  I: wild oat, herbicidal effect (criteria 0-5): 0 (Herbicidal rate of 5% or less (almost no effect))
blackgrass
  J: blackgrass, herbicidal effect (criteria 0-5): 0 (Herbicidal rate of 5% or less (almost no effect))
Italian ryegrass
  K: Italian ryegrass, herbicidal effect (criteria 0-5): 0 (Herbicidal rate of 5% or less (almost no effect))
windgrass
  L: windgrass, herbicidal effect (criteria 0-5): 0 (Herbicidal rate of 5% or less (almost no effect))
Velvetleaf [5]; [14]
  M: velvetleaf, herbicidal effect (criteria 0-5): 0 (Herbicidal rate of 5% or less (almost no effect))
Redroot pigweed [6]; [14]
  N: redroot pigweed, herbicidal effect (criteria 0-5): 3 (Herbicidal rate of 40% or more and less than 70%)
Lambsquarters [7]; [14]
  O: lambsquarters, herbicidal effect (criteria 0-5): 0 (Herbicidal rate of 5% or less (almost no effect))
chickweed
  P: chickweed, herbicidal effect (criteria 0-5): 5 (Herbicidal rate of 90% or more (almost completely withered))

## Cc1ccc2sc(-c3ccc(OC(F)F)cc3)c(-c3c(O)c(C)nn(C)c3=O)c2c1 [2-459]
Late watergrass
  herbicidal effect rating, A: late watergrass: 3 (Herbicidal rate of 40% or more and less than 70%)
Japanese bulrush
  herbicidal effect rating, B: Japanese bulrush: 0 (Herbicidal rate of 5% or less (almost no effect))
oval-leafed pondweed
  herbicidal effect rating, C: oval-leafed pondweed: 0 (Herbicidal rate of 5% or less (almost no effect))
Barnyard grass [1]
  herbicidal effect on H: barnyard grass: 3 (Herbicidal rate of 40% or more and less than 70%)
Chinese sprangletop
  herbicidal effect on D: Chinese sprangletop: 0 (Herbicidal rate of 5% or less (almost no effect))
Rice flat sedge
  herbicidal effect on E: rice flat sedge: 0 (Herbicidal rate of 5% or less (almost no effect))
Southern crabgrass [8]
  herbicidal effect, F: southern crabgrass: 0 (Herbicidal rate of 5% or less (almost no effect))
Green foxtail [9]
  herbicidal effect, G: green foxtail: 0 (Herbicidal rate of 5% or less (almost no effect))
Barnyard grass [10]
  herbicidal effect, H: barnyard grass: 0 (Herbicidal rate of 5% or less (almost no effect))
Velvetleaf [11]
  herbicidal effect, M: velvetleaf: 1 (Herbicidal rate of 5% or more and less than 20%)
Redroot pigweed [12]
  herbicidal effect, N: redroot pigweed: 5 (Herbicidal rate of 90% or more (almost completely withered))
Lambsquarters [13]
  herbicidal effect, O: lambsquarters: 4 (Herbicidal rate of 70% or more and less than 90%)
Southern crabgrass [2]; [15]
  F: southern crabgrass, herbicidal effect grade: 0 (Herbicidal rate of 5% or less (almost no effect))
Green foxtail [3]; [15]
  G: green foxtail, herbicidal effect grade: 0 (Herbicidal rate of 5% or less (almost no effect))
Barnyard grass [4]; [15]
  H: barnyard grass, herbicidal effect grade: 0 (Herbicidal rate of 5% or less (almost no effect))
Velvetleaf [5]; [15]
  M: velvetleaf, herbicidal effect grade: 4 (Herbicidal rate of 70% or more and less than 90%)
Redroot pigweed [6]; [15]
  N: redroot pigweed, herbicidal effect grade: 4 (Herbicidal rate of 70% or more and less than 90%)
Lambsquarters [7]; [15]
  O: lambsquarters, herbicidal effect grade: 4 (Herbicidal rate of 70% or more and less than 90%)
